Results on one compound are retold here after US12128111B2, “Glyco-metal-organic frameworks-based hepatic targeted therapeutic drug and preparation method thereof” (Jiangnan University, priority 2019, dated 2024).

The test system of data set [1] is subcutaneous solid tumor. Nature of the data set: Inhibition of tumor growth in subcutaneous solid tumor mouse models. The data set is classed as in vivo, BALB/c nude mice. To be noted: no laser; tail vein, DOX 2 mg/kg, PCN-224 12 mg/kg, DOX@PCN-224 and DOX@Gal-PCN-224 14 mg/kg; last day (day 21) versus saline. The method, then: To construct subcutaneous solid tumor mouse models, male BALB/c nude mice with the average weight of 14-17 g at the age of 4 weeks were inoculated with 0.1 ml of 6×10^6 cells/ml PBS at the right gluteus. After four weeks, when the tumor size exceeded 200 mm^3 (volume=0.52×tumor length×tumor width^2), the mice were divided into 2 groups with 5 mice in each group. The DOX@PCN-224-RhB (0.1 mL 0.4 mg/mL) and DOX@Gal-PCN-224-RhB (0.1 mL 0.4 mg/ml) were injected into the tail vein respectively. The fluorescence signal of RhB was detected by a small animal imager (Bruker In Vivo Xtreme II) at set time points (3, 6, 12, 24, 48 hours). Then the mice were sacrificed, the heart, liver, spleen, lung and kidney were isolated, and the RhB fluorescence signal of each organ was detected.
When the subcutaneous tumor size of the mice exceeded 50 mm^3, the mice were randomly divided into 9 groups with 5 mice in each group: (1) saline, (2) free DOX saline (2 mg/kg), (3) free DOX+660 nm laser (2 mg/kg), (4) PCN-224 (12 mg/kg), (5) PCN-224+660 nm laser (12 mg/kg), (6) DOX@PCN-224 (14 mg/kg), (7) DOX@PCN-224+660 nm laser (14 mg/kg), (8) DOX@Gal-PCN-224 (14 mg/kg), and (9) DOX@Gal-PCN-224+660 nm laser (14 mg/kg). […] At the specified time points (days 3, 6, 9, 12, 15, 18, and 21), the tumor volume and mouse body weight of the experimental groups were measured. […]

Data set [2] relates to Huh7 cells. Briefly: Calcein-AM/PI live and dead staining, in vitro therapeutic effect. The data set is classed as cell-based, human. To be noted: 10 μg/mL DOX, 60 μg/mL PCN-224, 70 μg/mL DOX@PCN-224 or DOX@Gal-PCN-224. The method, then: (§1) The in vitro therapeutic effect of the inorganic nanomaterial DOX@Gal-PCN-224 was detected by the live and death staining method and the corresponding MTT experiment.
(§2) Human hepatoma cells Huh7 were inoculated in a laser confocal culture dish (35 mm) at the density of 8×10^4 per well. After culturing for 24 hours, the cells were incubated with a medium containing 10 μg/mL DOX, 60 μg/mL PCN-224, 70 μg/mL DOX@PCN-224 (with the drug loading ratio of 14.2, and the DOX content of about 10 μg/mL) or 70 μg/mL DOX@Gal-PCN-224 (with the drug loading ratio of 14.2, and the DOX content of about 10 μg/mL) respectively for 24 hours. Then the light group was irradiated with a 660 nm light source for 10 min. After incubating for 24 hours, Calcein-AM/PI live and dead co-staining was performed. Finally, the cells were observed under the confocal laser. After the same treatment, the therapeutic effect of each group was further quantified by the MTT experiment.

Data set [3] concerns Huh7 cells. Briefly: MTT in vitro therapeutic effect. It counts as cell-based, human. To be noted: 10 μg/mL DOX, 60 μg/mL PCN-224, 70 μg/mL DOX@PCN-224 or DOX@Gal-PCN-224. The method, then:
as §1, §2

The compound `COc1cccc2c1C(=O)c1c(O)c3c(c(O)c1C2=O)C[C@@](O)(C(=O)CO)C[C@@H]3O[C@H]1C[C@H](N)[C@H](O)[C@H](C)O1` [DOX, doxorubicin] returned a Tumor inhibition efficiency in data set [1] of 49.8%. Besides, the “live and dead staining (red fluorescence = dead cells, apoptosis)” value in data set [2] (Huh7, 660 nm light 10 min) was “only sporadic red fluorescence”; in data set [2] (Huh7, no light) it was “only sporadic red fluorescence”. Besides, the Cell viability in data set [3] (Huh7, + 660 nm laser 10 min) stood at 79%; in data set [3] (Huh7, no laser), 82%.
